The results in this text go back to patent US7541368B2, “Pyrazoles as inhibitors of tumor necrosis factor” (Aventis Pharmaceuticals Inc., priority 2003, dated 2009).

In the assay the test system is TNF-alpha release in THP-1 cells. In words: LPS-induced TNF-alpha release in THP-1 cells. The assay is classed as cell-based. The settings on record: Homo sapiens, THP-1, LPS-stimulated THP-1 cells; read-out: 50% inhibition in the LPS-induced TNF-alpha release in THP-1 cells assay at concentrations within the range. The gist of the method:
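Undifferentiated THP-1 monocytes (1×10^6 cells/ml, 1% FCS) preincubated 1 h at 37° C with compound (1×10^−9 to 1×10^−6 M, 0.3% DMSO), then stimulated with LPS (20 μg/ml) for 18 h. Supernatant TNF-alpha measured by sandwich ELISA (TMB read-out), interpolated from a log/log standard curve (0.125-16 ng/ml).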

In the case of `COc1cccc(CC(=O)N2CCC(Cc3ccc(NC(=O)Nc4cc(C(C)(C)C)nn4-c4ccc(C)cc4)cc3)CC2)c1OC` [Compound A213, 1-(5-tert-Butyl-2-p-tolyl-2H-pyrazol-3-yl)-3-(4-{1-[2-(2,3-dimethoxy-phenyl)-acetyl]-piperidin-4-ylmethyl}-phenyl)-urea], the IC50 fell in the range of 10 to 500 nM.
As to `Cc1ccc(-n2nc(C(C)(C)C)cc2NC(=O)Nc2cccc(CC3CCN(C(=O)Cc4ccc5c(c4)OCO5)CC3)c2)cc1` [Compound A70, 1-{3-[1-(2-Benzo[1,3]dioxol-5-yl-acetyl)-piperidin-4-ylmethyl]-phenyl}-3-(5-tert-butyl-2-p-tolyl-2H-pyrazol-3-yl)-urea], the IC50 fell in the range of 10 to 500 nM.
Consider `Cc1ccc(-n2nc(C(C)(C)C)cc2NC(=O)Nc2cccc(CC3CCN(C(=O)Cc4cccs4)CC3)c2)cc1` [Compound A189, 1-(5-tert-Butyl-2-p-tolyl-2H-pyrazol-3-yl)-3-{3-[1-(2-thiophen-2-yl-acetyl)-piperidin-4-ylmethyl]-phenyl}-urea], for which the IC50 lay in the range of 10 to 500 nM.
`Cc1ccc(-n2nc(C(C)(C)C)cc2NC(=O)Nc2cccc(CC3CCN(C(=O)c4occc4C)CC3)c2)cc1` [Compound A95, 1-(5-tert-Butyl-2-p-tolyl-2H-pyrazol-3-yl)-3-{3-[1-(3-methyl-furan-2-carbonyl)-piperidin-4-ylmethyl]-phenyl}-urea]: the IC50 lay within 10 to 500 nM.
As to `Cc1ccc(-n2nc(C(C)(C)C)cc2NC(=O)Nc2ccc(CC3CCN(C(=O)Nc4ccc(N(C)C)cc4)CC3)cc2)cc1` [Compound A450, 4-{4-[3-(5-tert-Butyl-2-p-tolyl-2H-pyrazol-3-yl)-ureido]-benzyl}-piperidine-1-carboxylic acid (4-dimethylamino-phenyl)-amide], the IC50 fell in the range of 10 to 500 nM.
In the case of `Cc1ccc(-n2nc(C(C)(C)C)cc2NC(=O)Nc2cccc(CC3CCN(C(=O)c4cccc(C(C)C#N)c4)CC3)c2)cc1` (stereo not shown) [Compound A79, 1-(5-tert-Butyl-2-p-tolyl-2H-pyrazol-3-yl)-3-(3-{1-[3-(cyano-methyl-methyl)-benzoyl]-piperidin-4-ylmethyl}-phenyl)-urea], the IC50 is 10 to 500 nM.
Under `Cc1ccc(-n2nc(C(C)(C)C)cc2NC(=O)Nc2cccc(CC3CCN(C(=O)Cc4c[nH]c5ccccc45)CC3)c2)cc1` [Compound A168, 1-(5-tert-Butyl-2-p-tolyl-2H-pyrazol-3-yl)-3-{3-[1-(2-1H-indol-3-yl-acetyl)-piperidin-4-ylmethyl]-phenyl}-urea] stands 10 to 500 nM; under `COC(=O)c1ccccc1S(=O)(=O)N1CCC(Cc2ccc(NC(=O)Nc3cc(C(C)(C)C)nn3-c3ccc(C)cc3)cc2)CC1` [Compound A609, 2-(4-{4-[3-(5-tert-Butyl-2-p-tolyl-2H-pyrazol-3-yl)-ureido]-benzyl}-piperidine-1-sulfonyl)-benzoic acid methyl ester], 10 to 500 nM.
`Cc1ccc(-n2nc(C(C)(C)C)cc2NC(=O)Nc2ccc(CC3CCN(C(=O)Cc4ccc5c(c4)OCO5)CC3)cc2)cc1` [Compound A263, 1-{4-[1-(2-Benzo[1,3]dioxol-5-yl-acetyl)-piperidin-4-ylmethyl]-phenyl}-3-(5-tert-butyl-2-p-tolyl-2H-pyrazol-3-yl)-urea]: the IC50 lay within 10 to 500 nM.
Regarding `COc1cccc(CC(=O)N2CCC(Cc3ccc(NC(=O)Nc4cc(C(C)(C)C)nn4-c4ccc(C)cc4)cc3)CC2)c1` [Compound A288, 1-(5-tert-Butyl-2-p-tolyl-2H-pyrazol-3-yl)-3-(4-{1-[2-(3-methoxy-phenyl)-acetyl]-piperidin-4-ylmethyl}-phenyl)-urea], the IC50 fell in the range of 10 to 500 nM.
Under `COc1cccc(C(=O)N2C3CCC2CC(Cc2cccc(NC(=O)Nc4cc(C(C)(C)C)nn4-c4ccc(C)cc4)c2)C3)c1OC` (stereo not shown) [Compound A786, 1-(5-tert-Butyl-2-p-tolyl-2H-pyrazol-3-yl)-3-{3-[8-(2,3-dimethoxy-benzoyl)-8-aza-bicyclo[3.2.1]oct-3-ylmethyl]-phenyl}-urea] stands 10 to 500 nM; under `Cc1ccc(-n2nc(C(C)(C)C)cc2NC(=O)Nc2ccc(CC3CCN(C(=O)c4ccc(Cl)nc4)CC3)cc2)cc1` [Compound A332, 1-(5-tert-Butyl-2-p-tolyl-2H-pyrazol-3-yl)-3-{4-[1-(6-chloro-pyridine-3-carbonyl)-piperidin-4-ylmethyl]-phenyl}-urea], 10 to 500 nM; under `Cc1ccc(-n2nc(C(C)(C)C)cc2NC(=O)Nc2cccc(CC3CCN(C(=O)CCc4ccco4)CC3)c2)cc1` [Compound A81, 1-(5-tert-Butyl-2-p-tolyl-2H-pyrazol-3-yl)-3-{3-[1-(3-furan-2-yl-propionyl)-piperidin-4-ylmethyl]-phenyl}-urea], 10 to 500 nM.
Under `Cc1ccc(-n2nc(C(C)(C)C)cc2NC(=O)Nc2ccc(CC3CCN(C(=O)C4(C)CC4)CC3)cc2)cc1` [Compound A206, 1-(5-tert-Butyl-2-p-tolyl-2H-pyrazol-3-yl)-3-{4-[1-(1-methyl-cyclopropanecarbonyl)-piperidin-4-ylmethyl]-phenyl}-urea] stands 10 to 500 nM.
Under `Cc1ccc(-n2nc(C(C)(C)C)cc2NC(=O)Nc2ccc(CC3CCN(C(=O)c4cc5cccnc5nc4C)CC3)cc2)cc1` [Compound A249, 1-(5-tert-Butyl-2-p-tolyl-2H-pyrazol-3-yl)-3-{4-[1-(2-methyl-[1,8]naphthyridine-3-carbonyl)-piperidin-4-ylmethyl]-phenyl}-urea] stands 10 to 500 nM.
In the case of `Cc1ccc(-n2nc(C(C)(C)C)cc2NC(=O)Nc2ccc(CC3CCN(C(=O)c4csnn4)CC3)cc2)cc1` [Compound A196, 1-(5-tert-Butyl-2-p-tolyl-2H-pyrazol-3-yl)-3-{4-[1-([1,2,3]thiadiazole-4-carbonyl)-piperidin-4-ylmethyl]-phenyl}-urea], the IC50 is 10 to 500 nM.
Turning to `Cc1ccc(-n2nc(C(C)(C)C)cc2NC(=O)Nc2ccc(CC3CCN(C(=O)CCc4ccco4)CC3)cc2)cc1` [Compound A274, 1-(5-tert-Butyl-2-p-tolyl-2H-pyrazol-3-yl)-3-{4-[1-(3-furan-2-yl-propionyl)-piperidin-4-ylmethyl]-phenyl}-urea], the IC50 fell in the range of 10 to 500 nM.
In the case of `Cc1ccc(-n2nc(C(C)(C)C)cc2NC(=O)Nc2cccc(CC3CC4CCC(C3)N4C(=O)Cc3cn(C)c4ccccc34)c2)cc1` (stereo not shown) [Compound A641, 1-(5-tert-Butyl-2-p-tolyl-2H-pyrazol-3-yl)-3-(3-{8-[2-(1-methyl-1H-indol-3-yl)-acetyl]-8-aza-bicyclo[3.2.1]oct-3-ylmethyl}-phenyl)-urea], the IC50 lay within 10 to 500 nM.
Take `Cc1ccc(-n2nc(C(C)(C)C)cc2NC(=O)Nc2ccc(CC3CCN(C(=O)c4ccc(N)nc4)CC3)cc2)cc1` [Compound A331A, 1-{4-[1-(6-Amino-pyridine-3-carbonyl)-piperidin-4-ylmethyl]-phenyl}-3-(5-tert-butyl-2-p-tolyl-2H-pyrazol-3-yl)-urea]: the IC50 is 10 to 500 nM.
Take `Cc1ccc(-n2nc(C(C)(C)C)cc2NC(=O)Nc2cccc(CC3CCN(C(=O)c4cnc(C)cn4)CC3)c2)cc1` [Compound A140, 1-(5-tert-Butyl-2-p-tolyl-2H-pyrazol-3-yl)-3-{3-[1-(5-methyl-pyrazine-2-carbonyl)-piperidin-4-ylmethyl]-phenyl}-urea]: the IC50 was 10 to 500 nM.
Consider `Cc1ccc(-n2nc(C(C)(C)C)cc2NC(=O)Nc2ccc(CC3CCN(C(=O)Cc4ccsc4)CC3)cc2)cc1` [Compound A389, 1-(5-tert-Butyl-2-p-tolyl-2H-pyrazol-3-yl)-3-{4-[1-(2-thiophen-3-yl-acetyl)-piperidin-4-ylmethyl]-phenyl}-urea], for which the IC50 was 10 to 500 nM.
Under `Cc1ccc(-n2nc(C(C)(C)C)cc2NC(=O)Nc2ccc(CC3CCN(C(=O)c4cc(O)nc5ccccc45)CC3)cc2)cc1` [Compound A240, 1-(5-tert-Butyl-2-p-tolyl-2H-pyrazol-3-yl)-3-{4-[1-(2-hydroxy-quinoline-4-carbonyl)-piperidin-4-ylmethyl]-phenyl}-urea] stands 10 to 500 nM; under `Cc1ccc(-n2nc(C(C)(C)C)cc2NC(=O)Nc2cccc(CC3CCN(C(=O)C4CCCO4)CC3)c2)cc1` (stereo not shown) [Compound A66, 1-(5-tert-Butyl-2-p-tolyl-2H-pyrazol-3-yl)-3-{3-[1-(tetrahydro-furan-2-carbonyl)-piperidin-4ylmethyl]-phenyl}-urea], 10 to 500 nM; under `Cc1ccc(-n2nc(C(C)(C)C)cc2NC(=O)Nc2ccc(CC3CCN(C(=O)c4cc5cnccc5nc4C)CC3)cc2)cc1` [Compound A243, 1-(5-tert-Butyl-2-p-tolyl-2H-pyrazol-3-yl)-3-{4-[1-(2-methyl-[1,6]naphthyridine-3-carbonyl)-piperidin-4-ylmethyl]-phenyl}-urea], 10 to 500 nM.
Turning to `Cc1ccc(-n2nc(C(C)(C)C)cc2NC(=O)Nc2cccc(CC3CCN(C(=O)c4ccc5cnccc5n4)CC3)c2)cc1` [Compound A7, 1-(5-tert-Butyl-2-p-tolyl-2H-pyrazol-3-yl)-3-{3-[1-([1,6]naphthyridine-2-carbonyl)-piperidin-4-ylmethyl]-phenyl}-urea], the IC50 was 10 to 500 nM.
As for `Cc1ccc(-n2nc(C(C)(C)C)cc2NC(=O)Nc2cccc(CC3CCN(C(=O)Cc4ccsc4)CC3)c2)cc1` [Compound A190, 1-(5-tert-Butyl-2-p-tolyl-2H-pyrazol-3-yl)-3-{3-[1-(2-thiophen-3-yl-acetyl)-piperidin-4-ylmethyl]-phenyl}-urea], the IC50 was in the range of 10 to 500 nM.
With `COc1cc(OC)c(C(=O)N2CCC(Cc3cccc(NC(=O)Nc4cc(C(C)(C)C)nn4-c4ccc(C)cc4)c3)CC2)c(OC)c1` [Compound A24, 1-(5-tert-Butyl-2-p-tolyl-2H-pyrazol-3-yl)-3-{3-[1-(2,4,6-trimethoxy-benzoyl)-piperidin-4-ylmethyl]-phenyl}-urea], the IC50 lay within 10 to 500 nM.
Take `COc1cccc(CC(=O)N2C3CCC2CC(Cc2ccc(NC(=O)Nc4cc(C(C)(C)C)nn4-c4ccc(C)cc4)cc2)C3)c1OC` (stereo not shown) [Compound A1312, 1-(5-tert-Butyl-2-p-tolyl-2H-pyrazol-3-yl)-3-(4-{8-[2-(2,3-dimethoxy-phenyl)-acetyl]-8-aza-bicyclo[3.2.1]oct-3-ylmethyl}-phenyl)-urea]: the IC50 lay within 10 to 500 nM.
